Results published in patent US12421209B2, “Compounds” (Hoffmann-La Roche Inc., priority 2021, dated 2025).

Legend:
Assay type in all cases: cell-based
[1] = target: T1, NLRP3 (Homo sapiens, UniProt Q96P20); experiment: Human whole blood IL-1β release assay (LPS, nigericin, AlphaLisa); design: Human whole blood in Li-heparin tubes was obtained from healthy donors; from tissue; host or cells: human whole blood from healthy donors; conditions: 10 μM nigericin
Method: For systemic delivery, the ability to inhibit NLRP3 when the compounds are present within the bloodstream is of great importance. For this reason, the NLRP3 inhibitory activity of a number of compounds in human whole blood was investigated in accordance with the following protocol.
Human whole blood in Li-heparin tubes was obtained from healthy donors from a volunteer donor panel. • 1. Plate out 80 μl of whole blood containing lug/ml of LPS in 96-well, clear bottom cell culture plate (Corning #3585) • 2. Add 10 μl compound (8 points half-log dilution with 10 μM top dose) or vehicle (DMSO 0.1% FAC) to the appropriate wells • 3. Incubate for 3 hours at 37° C., 5% CO2 • 4. Add 10 μl nigericin (Sigma #N7143) (10 μM FAC) to all wells • 5. Incubate for 1 hr at 37° C., 5% CO2 • 6. At the end of the incubation period, spin plates at 300×g for 5 mins to pellet cells and remove 20 μl of supernatant and add to 96-well v-bottom plates for IL-1β analysis (note: these plates containing the supernatants can be stored at −80° C. to be analysed at a later date) • 7. IL-1β was measured according to the manufacturer protocol (Perkin Elmer-AlphaLisa IL-1 Kit AL220F-5000) • 8. IC50 data is fitted to a non-linear regression equation (log inhibitor vs response-variable slope 4-parameters)

[2] = target: T2, hERG channels (Homo sapiens, UniProt Q12809); experiment: hERG screening assay (automated patch clamp, CHO crelox hERG cell line); conditions: CHO-hERG cells, whole-cell patch clamp at 35-37° C.
T2 construct: Evotec (cryopreserved) ATCC PTA-6812; host or cells: CHO (Chinese hamster ovary) cells
T2 sequence (Q12809 whole entry): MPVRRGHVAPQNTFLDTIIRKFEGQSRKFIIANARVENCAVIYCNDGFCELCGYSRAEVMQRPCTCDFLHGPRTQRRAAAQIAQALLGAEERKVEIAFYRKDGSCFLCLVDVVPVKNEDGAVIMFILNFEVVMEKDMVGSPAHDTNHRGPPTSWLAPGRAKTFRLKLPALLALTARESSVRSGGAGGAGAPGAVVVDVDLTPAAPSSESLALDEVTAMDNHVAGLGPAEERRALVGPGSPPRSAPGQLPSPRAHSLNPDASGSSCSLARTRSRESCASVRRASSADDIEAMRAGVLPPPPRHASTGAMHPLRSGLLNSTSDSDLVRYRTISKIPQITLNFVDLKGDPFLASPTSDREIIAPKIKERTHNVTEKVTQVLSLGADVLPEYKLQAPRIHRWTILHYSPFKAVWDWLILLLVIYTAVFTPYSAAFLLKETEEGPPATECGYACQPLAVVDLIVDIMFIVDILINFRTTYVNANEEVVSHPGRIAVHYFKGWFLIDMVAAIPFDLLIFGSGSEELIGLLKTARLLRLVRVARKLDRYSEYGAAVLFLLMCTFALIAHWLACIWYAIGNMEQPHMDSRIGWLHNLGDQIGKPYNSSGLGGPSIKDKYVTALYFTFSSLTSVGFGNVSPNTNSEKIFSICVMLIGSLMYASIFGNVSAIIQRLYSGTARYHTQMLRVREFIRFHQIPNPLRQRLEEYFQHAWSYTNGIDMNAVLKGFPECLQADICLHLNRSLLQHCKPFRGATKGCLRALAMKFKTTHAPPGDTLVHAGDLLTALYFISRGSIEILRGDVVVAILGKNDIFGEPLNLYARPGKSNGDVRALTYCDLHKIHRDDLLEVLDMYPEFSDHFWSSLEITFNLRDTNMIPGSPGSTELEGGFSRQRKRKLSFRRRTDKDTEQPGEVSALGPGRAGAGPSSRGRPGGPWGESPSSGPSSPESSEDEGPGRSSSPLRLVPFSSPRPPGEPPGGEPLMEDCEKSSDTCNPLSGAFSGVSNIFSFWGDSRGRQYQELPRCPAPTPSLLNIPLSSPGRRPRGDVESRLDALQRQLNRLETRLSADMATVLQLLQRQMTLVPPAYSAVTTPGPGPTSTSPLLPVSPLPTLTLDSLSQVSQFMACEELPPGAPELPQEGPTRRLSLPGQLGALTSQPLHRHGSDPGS
Excerpt: The CHO crelox hERG cell line (ATCC reference Nr. PTA-6812, female Chinese hamster cells) was generated and validated at Roche. Ready-to-use frozen instant CHO-hERG cells were cryopreserved at Evotec (Germany) and used directly in the experiments.
The extracellular solution contains (in mM): NaCl 150; KCl 4; CaCl2) 1; MgCl2 1; HEPES 10; pH 7.2-7.4 with NaOH, osmolarity 290-330 mOsm. The internal solution contains (in mM): KCl, 10; KF, 100; NaCl, 10; HEPES, 10; EGTA, 20; pH=7.0-7.4 with KOH, osmolarity 260-300 mOsm.
The effects of a compound on hERG K+-currents parameters will be evaluated at 2 concentrations in at least 4 cells.
The hERG test is performed using automated patch clamp system SynchroPatch® 384 (Nanion Technologies GmbH, Germany). K+ currents are measured with the patch-voltage-clamp technique in the whole-cell configuration at 35-37° C.
Cells were held at a resting voltage of −80 mV and they were stimulated by a voltage pattern shown in FIG. 1 to activate hERG channels and conduct outward IKhERG current, at a stimulation frequency of 0.1 Hz (6 bpm)
The amplitudes of IKhERG were recorded in each concentration of drug and they were compared to the vehicle control values (taken as 100%) to define fractional blocks. The concentration-response data were fitted with the following relationship: […]

[3] = target: T1, NLRP3; experiment: THP-1 cells pyroptosis assay (LPS priming, nigericin, resazurin read-out); design: Seed THP-1 cells (25,000 cells/well) containing 1.0 μg/ml LPS; host or cells: THP-1 cells; conditions: 1.0 μg/ml LPS, 5 μM nigericin
Method: THP-1 cells (ATCC #TIB-202) were grown in RPMI containing L-glutamine (Gibco #11835) supplemented with 1 mM sodium pyruvate (Sigma #S8636) and penicillin (100 units/ml)/streptomycin (0.1 mg/ml) (Sigma #P4333) in 10% Fetal Bovine Serum (FBS) (Sigma #F0804). The cells were routinely passaged and grown to confluency (˜10^6 cells/ml). On the day of the experiment, THP-1 cells were harvested and resuspended into RPMI medium (without FBS). The cells were then counted and viability (>90%) checked by Trypan blue (Sigma #T8154). Appropriate dilutions were made to give a concentration of 625,000 cells/ml. To this diluted cell solution was added LPS (Sigma #L4524) to give a lug/ml Final Assay Concentration (FAC). 40 μl of the final preparation was aliquoted into each well of a 96-well plate. The plate thus prepared was used for compound screening.
The following method step-by-step assay was followed for compound screening. • 1. Seed THP-1 cells (25,000 cells/well) containing 1.0 μg/ml LPS in 40 μl of RPMI medium (without FBS) in 96-well, black walled, clear bottom cell culture plates coated with poly-D-lysine (VWR #734-0317) • 2. Add 5 μl compound (8 points half-log dilution, with 10 μM top dose) or vehicle (DMSO 0.1% FAC) to the appropriate wells • 3. Incubate for 3 hours at 37° C., 5% CO2 • 4. Add 5 μl nigericin (Sigma #N7143) (FAC 5 μM) to all wells • 5. Incubate for 1 hr at 37° C., 5% CO2 • 6. At the end of the incubation period, spin plates at 300×g for 3 mins and remove supernatant • 7. Then add 50 μl of resazurin (Sigma #R7017) (FAC 100 μM resazurin in RPMI medium without FBS) and incubate plates for a further 1-2 hours at 37° C. and 5% CO2 • 8. Plates were read in an Envision reader at Ex 560 nm and Em 590 nm • 9. IC50 data is fitted to a non-linear regression equation (log inhibitor vs response-variable slope 4-parameters)

T1 sequence (Q96P20 whole entry): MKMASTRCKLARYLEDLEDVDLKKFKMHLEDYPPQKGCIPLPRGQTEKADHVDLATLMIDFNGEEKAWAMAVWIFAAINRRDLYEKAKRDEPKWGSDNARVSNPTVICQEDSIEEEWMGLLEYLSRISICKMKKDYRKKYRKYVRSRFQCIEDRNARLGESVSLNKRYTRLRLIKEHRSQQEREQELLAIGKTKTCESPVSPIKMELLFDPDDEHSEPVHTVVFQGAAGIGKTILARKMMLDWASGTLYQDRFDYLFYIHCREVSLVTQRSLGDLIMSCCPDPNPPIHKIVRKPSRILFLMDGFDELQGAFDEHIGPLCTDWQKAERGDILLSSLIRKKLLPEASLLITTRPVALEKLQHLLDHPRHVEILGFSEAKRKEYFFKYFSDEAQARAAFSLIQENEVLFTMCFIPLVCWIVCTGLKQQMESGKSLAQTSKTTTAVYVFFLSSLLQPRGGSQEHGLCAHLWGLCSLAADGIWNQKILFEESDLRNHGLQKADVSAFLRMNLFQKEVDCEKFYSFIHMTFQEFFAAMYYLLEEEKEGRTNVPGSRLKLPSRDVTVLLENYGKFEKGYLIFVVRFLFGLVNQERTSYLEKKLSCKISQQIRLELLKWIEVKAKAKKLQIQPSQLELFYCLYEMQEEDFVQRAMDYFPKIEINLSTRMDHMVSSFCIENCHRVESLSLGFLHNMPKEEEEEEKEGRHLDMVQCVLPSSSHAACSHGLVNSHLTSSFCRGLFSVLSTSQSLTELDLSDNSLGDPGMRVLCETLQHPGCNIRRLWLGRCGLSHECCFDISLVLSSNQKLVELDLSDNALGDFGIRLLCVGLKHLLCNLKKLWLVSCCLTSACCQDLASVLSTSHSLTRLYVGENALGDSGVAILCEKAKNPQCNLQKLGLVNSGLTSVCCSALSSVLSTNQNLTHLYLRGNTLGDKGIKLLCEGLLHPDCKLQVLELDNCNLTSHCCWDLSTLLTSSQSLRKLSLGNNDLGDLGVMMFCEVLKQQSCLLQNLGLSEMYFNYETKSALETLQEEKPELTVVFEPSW

IC50 [1] [nM] | IC50 [3] [nM] | SMILES | IC50 [2] [µM]
5.4 | 1.7 | CCN1CCC[C@@H](Nc2nnc(-c3ccc(C(F)(F)F)cc3O)c(C)n2)C1 [Example 4, 2-[3-[[(3R)-1-Ethyl-3-piperidyl]amino]-5-methyl-1,2,4-triazin-6-yl]-5-(trifluoromethyl) phenol] | > 10
3.7 | 1.1 | CCN1CCC[C@@H](Nc2nnc(-c3ccc4c(c3O)CCO4)c(C)n2)C1 [Example 7, 5-[3-[[(3R)-1-Ethyl-3-piperidyl]amino]-5-methyl-1,2,4-triazin-6-yl]-2,3-dihydrobenzofuran-4-ol] | > 20
57.6 | 1.6 | CCN1CCC[C@@H](Nc2nnc(-c3c(C)cc(C(F)(F)F)cc3O)c(C)n2)C1 [Example 21, 2-[3-[[(3R)-1-Ethyl-3-piperidyl]amino]-5-methyl-1,2,4-triazin-6-yl]-3-methyl-5-(trifluoromethyl) phenol] | 
10.2 | 1.2 | CCN1CCC[C@@H](Nc2nnc(-c3ccc(OC(F)(F)F)cc3O)c(C)n2)C1 [Example 22, 2-[3-[[(3R)-1-Ethyl-3-piperidyl]amino]-5-methyl-1,2,4-triazin-6-yl]-5-(trifluoromethoxy) phenol] | 
40.5 | 40.1 | CCN1C[C@@H](O)C[C@@H](Nc2nnc(-c3ccc(C(F)(F)F)cc3O)c(C)n2)C1 [Example 23, (3S,5R)-1-Ethyl-5-[[6-[2-hydroxy-4-(trifluoromethyl)phenyl]-5-methyl-1,2,4-triazin-3-yl]amino]piperidin-3-ol] | 
125 | 49.6 | CCN1C[C@@H](O)C[C@@H](Nc2nnc(-c3c(C)cc(C(F)(F)F)cc3O)c(C)n2)C1 [Example 24, (3S,5R)-1-Ethyl-5-[[6-[2-hydroxy-6-methyl-4-(trifluoromethyl)phenyl]-5-methyl-1,2,4-triazin-3-yl]amino]piperidin-3-ol] | 
6.3 | 0.7 | CCN1CCC[C@@H](Nc2nnc(-c3ccc4c(c3O)CCC4)c(C)n2)C1 [Example 25, 5-[3-[[(3R)-1-Ethyl-3-piperidyl]amino]-5-methyl-1,2,4-triazin-6-yl]indan-4-ol] | 
